Reference: patent publication US20250339399A1, “SUPRAMOLECULAR SELF-ASSEMBLY SYSTEM” (Beijing Creatron Institute of Pharmaceutical Research Co., …, priority 2022, published 2025)

Legend:
[1] = Guest molecule concentration after incubation in initial medium without polymer (Comparative Example 1); assay type: physicochemical; conditions: 37° C.
How it was run: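 Dissolved guest content measured by HPLC of centrifuged supernatants (37° C., 13000 rpm, 5 min) sampled at 0.5 h, 3 h and 6 h. Incubation was polymer-free at 37° C.±0.5° C. in buffers of pH 2.0-7.4; nominal loading was set by maximum clinical dose.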

[2] = cited from earlier work
[3] = Binary (carrier), ternary and quaternary supramolecular self-assembly systems of polymer, carrier building block and target: guest concentration over incubation time (Examples 1-56); assay type: physicochemical; conditions: 6 h
How it was run: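 Targets were incubated at 37 °C in pH 2.0–7.4 buffers with 0.5% polymer alone or with carrier building blocks, after 0.5 h sonication for ternary systems, and shaken at 200 rpm. Samples at 0.5–6 h were centrifuged and diluted ≥10-fold, and dissolved target was quantified by HPLC; surfactant was added if needed.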

[4] = Binary supramolecular self-assembly systems of polymer and target: guest concentration over incubation time (Comparative Example 2); assay type: physicochemical; conditions: for Concentration of guest molecule in solution / Times that of the initial medium: 6 h
Method: Experiments were conducted according to the steps in Comparative Example 1, and quantitative analysis was carried out using the analytical method for each target to investigate the regulation ability […] stacking.

[5] = binary system with 0.5% polymer 101, incubation 0.5 h
[6] = binary system with 0.5% polymer 101, incubation 3 h
[7] = binary system with 0.5% polymer 101, incubation 6 h
[8] = binary system with 0.5% polymer 102, incubation 0.5 h
[9] = binary system with 0.5% polymer 102, incubation 3 h
[10] = binary system with 0.5% polymer 102, incubation 6 h
[11] = binary system with 0.5% polymer 103, incubation 0.5 h
[12] = binary system with 0.5% polymer 103, incubation 3 h
[13] = binary system with 0.5% polymer 103, incubation 6 h
[14] = binary system with 0.5% polymer 106, incubation 0.5 h
[15] = binary system with 0.5% polymer 106, incubation 3 h
[16] = binary system with 0.5% polymer 106, incubation 6 h
[17] = binary system with 0.5% polymer 107, incubation 0.5 h
[18] = binary system with 0.5% polymer 107, incubation 3 h
[19] = binary system with 0.5% polymer 107, incubation 6 h
[20] = binary system with 0.5% polymer 110, incubation 0.5 h
[21] = binary system with 0.5% polymer 110, incubation 3 h
[22] = binary system with 0.5% polymer 110, incubation 6 h

Row | SMILES | LogP [2] | Concentration of the target in the solution measured after different incubation time [4, 5] | Concentration of the target in the solution measured after different incubation time [4, 6] | Concentration of the target in the solution measured after different incubation time [4, 7] | Concentration of the target in the solution measured after different incubation time [4, 8] | Concentration of the target in the solution measured after different incubation time [4, 9] | Concentration of the target in the solution measured after different incubation time [4, 10] | Concentration of the target in the solution measured after different incubation time [4, 11] | Concentration of the target in the solution measured after different incubation time [4, 12] | Concentration of the target in the solution measured after different incubation time [4, 13] | Concentration of the target in the solution measured after different incubation time [4, 14] | Concentration of the target in the solution measured after different incubation time [4, 15] | Concentration of the target in the solution measured after different incubation time [4, 16] | Concentration of the target in the solution measured after different incubation time [4, 17] | Concentration of the target in the solution measured after different incubation time [4, 18] | Concentration of the target in the solution measured after different incubation time [4, 19] | Concentration of the target in the solution measured after different incubation time [4, 20] | Concentration of the target in the solution measured after different incubation time [4, 21] | Concentration of the target in the solution measured after different incubation time [4, 22] | Times that of the initial medium ([4]; binary: 0.5% 102H) | further results
1 | C=CC[C@@H]1/C=C(\C)C[C@H](C)C[C@H](OC)[C@H]2O[C@@](O)(C(=O)C(=O)N3CCCC[C@H]3C(=O)O[C@H](/C(C)=C/[C@@H]3CC[C@@H](O)[C@H](OC)C3)[C@H](C)[C@@H](O)CC1=O)[C@H](C)C[C@@H]2OC [Tacrolimus] | LogP 5.59 | 224.0 µg/mL | 88.8 µg/mL | 161.3 µg/mL | 63.4 µg/mL | 60.3 µg/mL | 55.7 µg/mL | 46.8 µg/mL | 58.7 µg/mL | 6.0 µg/mL | 78.6 µg/mL | 65.2 µg/mL | 5.2 µg/mL | 68.7 µg/mL | 62.8 µg/mL | 13.2 µg/mL |  |  |  |  | Concentration of guest molecule measured after different incubated time ([1]; 0.5 h, pH 4.5 acetate buffer): 77.4 µg/mL; Concentration of guest molecule measured after different incubated time ([1]; 3 h, pH 4.5 acetate buffer): 8.2 µg/mL; Concentration of guest molecule measured after different incubated time ([1]; 6 h, pH 4.5 acetate buffer): 17.3 µg/mL; Concentration of guest molecule in solution ([3]; ternary: 0.25% 102H + 307): 161.3 µg/mL; Concentration of guest molecule in solution ([3]; ternary: 0.25% 102H + 308): 219.1 µg/mL; Concentration of guest molecule in solution ([3]; ternary: 0.25% 102H + 320): 328.9 µg/mL; Concentration of guest molecule in solution ([3]; ternary: 0.25% 102H + 321): 337.2 µg/mL
2 | CCCNS(=O)(=O)Nc1ncnc(OCCOc2ncc(Br)cn2)c1-c1ccc(Br)cc1 [Macitentan] | LogP 3.55 | 56.0 µg/mL | 75.2 µg/mL | 46.2 µg/mL | 56.5 µg/mL | 71.5 µg/mL | 89.5 µg/mL | 34.3 µg/mL | 28.5 µg/mL | 27.7 µg/mL | 41.5 µg/mL | 35.6 µg/mL | 32.5 µg/mL | 46.5 µg/mL | 43.5 µg/mL | 39.3 µg/mL | 28.7 µg/mL | 34.7 µg/mL | 33.5 µg/mL | 10.4 times | Concentration of guest molecule measured after different incubated time ([1]; 0.5 h, pH 6.8 phosphate buffer): 35.0 µg/mL; Concentration of guest molecule measured after different incubated time ([1]; 3 h, pH 6.8 phosphate buffer): 33.8 µg/mL; Concentration of guest molecule measured after different incubated time ([1]; 6 h, pH 6.8 phosphate buffer): 28.0 µg/mL; Concentration of guest molecule in solution ([3]; Comparative Example 4, quaternary: 0.25% 201 + 0.25% 305): 59.5 µg/mL; Concentration of guest molecule in solution ([3]; Comparative Example 4, quaternary: 0.25% 201 + 0.25% 309): 29.2 µg/mL; Concentration of guest molecule in solution ([3]; quaternary: 0.25% 201 (102H+101) + 0.25% 307): 362.5 µg/mL; Concentration of guest molecule in solution ([3]; quaternary: 0.25% 201 (102H+101) + 0.25% 308): 516.0 µg/mL; Concentration of guest molecule in solution ([3]; quaternary: 0.25% 201 (102H+101) + 0.25% 313): 474.6 µg/mL; Concentration of guest molecule in solution ([3]; quaternary: 0.25% 201 (102H+101) + 0.25% 320): 562.4 µg/mL; Concentration of guest molecule in solution ([3]; quaternary: 0.25% 201 (102H+101) + 0.25% 321): 596.3 µg/mL; Concentration of guest molecule in solution ([4]; binary: 0.5% 101): 46.2 µg/mL; Times that of the initial medium ([4]; binary: 0.5% 101): 4.3 times; Concentration of guest molecule in solution ([4]; binary: 0.5% 102H): 89.5 µg/mL
3 | CNC(=O)c1ccc(N2C(=S)N(c3ccc(C#N)c(C(F)(F)F)c3)C(=O)C2(C)C)cc1F [Enzalutamide] |  | 272.9 µg/mL | 221.8 µg/mL | 193.8 µg/mL | 90.1 µg/mL | 75.5 µg/mL | 72.2 µg/mL | 102.4 µg/mL | 88.4 µg/mL | 84.4 µg/mL | 150.2 µg/mL | 131.1 µg/mL | 128.2 µg/mL | 236.9 µg/mL | 151.4 µg/mL | 137.8 µg/mL | 53.8 µg/mL | 45.8 µg/mL | 43.0 µg/mL | 1.7 times | Concentration of guest molecule measured after different incubated time ([1]; 0.5 h, 0.2% SDS in pH 6.8 phosphate buffer): 62.3 µg/mL; Concentration of guest molecule measured after different incubated time ([1]; 3 h, 0.2% SDS in pH 6.8 phosphate buffer): 57.1 µg/mL; Concentration of guest molecule measured after different incubated time ([1]; 6 h, 0.2% SDS in pH 6.8 phosphate buffer): 59.0 µg/mL; LogD7.4 or Log P [2]: 4.16; Concentration of guest molecule in solution ([3]; binary: 0.25% 312): 135 µg/mL; Concentration of guest molecule in solution ([3]; binary: 0.25% 318): 175 µg/mL; Concentration of guest molecule in solution ([3]; quaternary: 0.25% 202 (102H+107) + 0.25% 312): 371 µg/mL; Concentration of guest molecule in solution ([3]; quaternary: 0.25% 202 (102H+107) + 0.25% 313): 533 µg/mL; Concentration of guest molecule in solution ([3]; quaternary: 0.25% 202 (102H+107) + 0.25% 318): 451 µg/mL; Concentration of guest molecule in solution ([3]; quaternary: 0.25% 202 (102H+107) + 0.25% 321): 623 µg/mL; Times that of the initial medium ([4]; binary: 0.5% 107): 1.9 times
